Measured values as given in PMC12495443, “Developing inhibitors of the guanosine triphosphate hydrolysis accelerating activity of Regulator of G protein Signaling-14 [drawing 1]” (The Journal of Biological Chemistry, 2025).

What was measured:
[1] = target: T1, human RGS14 RGS-box (wild-type) (Homo sapiens, UniProt O43566); experiment: Transcreener GDP RGScreen fluorescence polarization assay of RGS14 RGS-box GAP activity on Gαi1(DM); assay type: biochemical; details: for Ratio (RGS14 pIC50 / RGS12 pIC50): values > 1.0 reflect RGS14 selectivity; for IC50: wild-type RGS14 RGS-box GAP activity, Gαi1(DM), Transcreener GDP RGScreen, read-out: RGS14 pIC50 (converted)
T1 construct: human RGS14 RGS-box (aa 46–195 of UniProt O43566); host or cells: E. coli
T1 sequence (O43566 46-195): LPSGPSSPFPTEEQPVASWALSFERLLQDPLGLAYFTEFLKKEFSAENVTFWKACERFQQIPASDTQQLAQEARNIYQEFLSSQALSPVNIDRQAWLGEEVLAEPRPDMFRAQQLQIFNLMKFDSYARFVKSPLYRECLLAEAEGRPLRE
From the text: (§1) We previously described work with BellBrook Labs creating the Transcreener GDP RGScreen fluorescence polarization assay of steady-state GTP hydrolysis, leveraging a double point-mutant in the Gα enzyme to make GTP hydrolysis, rather than GDP (product) release, the rate-limiting step for multiple rounds of GTP conversion ([57], [59]). […] Titrating inputs of the double point-mutant (“DM”) Gαi1 and RGS-box recombinant proteins (Fig. S2, B and C) established a robust, medium-throughput assay for evaluating potential RGS14 and RGS12 inhibitors, with “assay quality” Z′ scores ([60]) above 0.76 for each target (Fig. S2D).
(§2) Reagents and protocols for the fluorescence anisotropy-based Transcreener GDP RGScreen assay using a rate-altered, double point-mutant, recombinant Gαi1 protein have been extensively described previously ([43], [44]); reactions were always performed so that total GTP converted over the time course was consistently less than 10% of reaction maximum input. Specific methods for its application in assessing RGS14 and RGS12 GAP activity are summarized as follows. Open-reading frames (ORFs) encoding wild-type versions of the human RGS14 RGS-box (aa 46–195 of UniProt O43566) and human RGS12 RGS-box (aa 695–843 of UniProt O14924) were each sub-cloned in-frame with an N-terminal hexahistidine (His6) expression tag in the plasmid pET30a, expressed in E. coli cultures, and then purified by nickel-nitriloacetate (Ni-NTA) and size-exclusion (Superdex 200) column chromatographies by GenScript using previously described methods ([35]). These recombinant His6-tag fusion proteins were stored at −80 °C in storage buffer (150 mM NaCl, 50 mM Tris-HCl pH 8.0, 10% glycerol) before thawing and use. Cysteine-less versions were similarly produced by ORF site-directed mutagenesis: for RGS14, codons for cysteine residues 47 and 130 (numbered as in PDB id 2JNU) were replaced with serine codons; for RGS12, codons for cysteines 4, 51, 78, and 134 (numbered in relation to PDB id 2EBZ) were replaced with serine codons. Use of Transcreener GDP-detection reagents to assess compound inhibition of Naegleria fowleri Gα7 protein GTPase activity ([83]) has previously been described ([84]).

[2] = target: T2, human RGS12 RGS-box (wild-type) (Homo sapiens, UniProt O14924); experiment: Transcreener GDP RGScreen fluorescence polarization assay of RGS12 RGS-box GAP activity on Gαi1(DM); assay type: biochemical; details: wild-type RGS12 RGS-box GAP activity, Gαi1(DM), read-out: RGS12 pIC50 (converted)
T2 construct: human RGS12 RGS-box (aa 695–843 of UniProt O14924); host or cells: E. coli
T2 sequence (O14924 695-843): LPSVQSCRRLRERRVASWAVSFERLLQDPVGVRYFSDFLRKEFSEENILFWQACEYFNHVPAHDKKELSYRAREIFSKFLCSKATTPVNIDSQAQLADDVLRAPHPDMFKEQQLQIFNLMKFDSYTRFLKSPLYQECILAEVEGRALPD
From the text: as §1, §2

Ratio (RGS14 pIC50 / RGS12 pIC50) [1] | IC50 [1] | IC50 [2] | SMILES
0.77 | 234 µM | 20.4 µM | Fc1ccccc1OCc1nnc2n1N=C(c1ccc(Cl)cc1)CS2 [Z55660438]
0.92 | 102 µM | 44.7 µM | CCOc1ccccc1-c1nnc2n1N=C(c1ccc(NC(=O)C(C)C)cc1)[C@@H](C)S2 [Z90278674]
0.92 | 302 µM | 151 µM | O=C(O)CC1Sc2nnc(C3CC3)n2N=C1c1ccccc1 (stereo not drawn) [Z90274597]
0.96 | 38 µM | 24 µM | O=C(O)C[C@@H]1Sc2nnc(CCC3CCCCC3)n2N=C1c1ccccc1 [Z90277285]
